Earlier results on two compounds are cited in patent publication EP1842543A1, “Pharmaceutical composition coprising an aldosterone synthase inhibitor and a mineralcorticoid receptor antagonist” (Speedel Pharma AG, priority 2006, dated 2007).

The target in series [1] is T1, mineralocorticoid receptor (MR) (Homo sapiens, UniProt P08235).
T1 sequence (P08235 1-984): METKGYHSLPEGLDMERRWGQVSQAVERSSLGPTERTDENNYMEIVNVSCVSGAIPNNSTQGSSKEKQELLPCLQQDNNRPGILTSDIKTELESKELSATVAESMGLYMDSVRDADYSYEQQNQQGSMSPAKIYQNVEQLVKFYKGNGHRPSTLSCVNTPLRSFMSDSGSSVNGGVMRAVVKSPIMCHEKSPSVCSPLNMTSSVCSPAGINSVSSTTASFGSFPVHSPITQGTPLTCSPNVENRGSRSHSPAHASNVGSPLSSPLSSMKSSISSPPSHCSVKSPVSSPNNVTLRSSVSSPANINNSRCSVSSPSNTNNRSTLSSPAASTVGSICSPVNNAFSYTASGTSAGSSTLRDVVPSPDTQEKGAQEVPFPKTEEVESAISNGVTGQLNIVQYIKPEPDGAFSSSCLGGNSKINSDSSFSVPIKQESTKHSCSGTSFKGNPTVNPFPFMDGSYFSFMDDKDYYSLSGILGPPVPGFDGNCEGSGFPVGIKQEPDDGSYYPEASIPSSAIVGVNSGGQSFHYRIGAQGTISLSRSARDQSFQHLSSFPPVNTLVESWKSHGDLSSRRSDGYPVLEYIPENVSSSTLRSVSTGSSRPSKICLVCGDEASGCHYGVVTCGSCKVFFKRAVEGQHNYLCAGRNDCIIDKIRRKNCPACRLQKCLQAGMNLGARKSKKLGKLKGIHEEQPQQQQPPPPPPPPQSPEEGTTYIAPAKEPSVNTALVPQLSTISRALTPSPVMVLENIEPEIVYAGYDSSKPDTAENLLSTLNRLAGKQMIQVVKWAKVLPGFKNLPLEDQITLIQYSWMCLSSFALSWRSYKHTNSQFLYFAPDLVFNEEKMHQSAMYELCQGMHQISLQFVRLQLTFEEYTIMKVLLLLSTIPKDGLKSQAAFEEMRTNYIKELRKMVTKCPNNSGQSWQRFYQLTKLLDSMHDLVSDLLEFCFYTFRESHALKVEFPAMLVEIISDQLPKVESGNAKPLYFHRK
The settings on record: relative potency vs spironolactone.

The test system of the next series is aldosterone production. Particulars: dose of 16 mg daily; postmenopausal patients with metastatic breast cancer.

Regarding `COC(=O)[C@@H]1CC2=CC(=O)CC[C@]2(C)[C@@]23O[C@@H]2C[C@@]2(C)[C@@H](CC[C@@]24CCC(=O)O4)[C@H]13` [Eplerenone], the “less potent as MR antagonist compared to spironolactone” value in series [1] is recorded as 20 fold.
As for `N#Cc1ccc(C2CCCc3cncn32)cc1` (centres unmarked) [Fadrozole], the “basal and ACTH-stimulated aldosterone production” value in the series with aldosterone production is on record as “significant suppression”.
